Test results reported in patent publication US12162861B2, “Dopamine D3 receptor selective antagonists/partial agonists; method of making; and use thereof” (THE UNITED STATES OF AMERICA, AS REPRESENTED BY THE …, priority 2016, dated 2024).

How the values were obtained:
[1] = Phase I metabolic stability in monkey liver microsomes; type: in vitro ADME, rhesus monkey; settings: monkey liver microsomes, Phase I
Description: Methods: Phase I metabolic stability assay was conducted in rat and rhesus monkey liver microsomes. For phase I metabolism, the reaction was carried out with 100 mM potassium phosphate buffer, pH 7.4, in the presence of NADPH regenerating system (1.3 mM NADPH, 3.3 mM glucose 6-phosphate, 3.3 mM MgCl2, 0.4 U/mL glucose-6-phosphate dehydrogenase, 50 μM sodium citrate). Reactions in triplicate were initiated by addition of the liver microsomes to the incubation mixture (compound final concentration was 10 μM; 0.5 mg/mL microsomes). Negative controls in the absence of cofactors were carried out to determine the specific cofactor-free degradation. Compound disappearance was monitored via LC/MS/MS. Chromatographic analysis was performed using an Accela™ ultra high-performance system consisting of an analytical pump, and an autosampler coupled with TSQ Vantage mass spectrometer (Thermo Fisher Scientific Inc., Waltham MA). […] The mobile phase used was composed of 0.1% Formic Acid in Acetonitrile and 0.1% Formic Acid in H2O with gradient elution, starting with 10% (organic) linearly increasing to 99% up to 2 min, maintaining at 99% (2-2.5 min) and re-equilibrating to 10% by 2.7 min. The total run time for each analyte was 5.0 min.

[2] = Pharmacokinetics in rats after oral administration; type: in vivo, rat; settings: 10 mg/kg oral
Description: Male Long-Evans rats with body weights ˜250 grams (Charles River Laboratories, Raleigh, NC, USA) were used in this study. All rats were housed individually in a climate-controlled room under a 12 h light/dark cycle. Food and water were available ad libitum throughout the experiments. All experimental procedures were conducted in accordance with the Guide for the Care and Use of Laboratory Animals and were approved by the Animal Care and Use Committee of the National Institute on Drug Abuse of the U.S. National Institutes of Health. Experimental (oral gavage) procedures: The animals were gently restrained (grasp the animal by the loose skin of the neck and back) to immobilize the head but not such that the animals vocalize or show other signs of distress. Maintained the animal in an upright (vertical) position and passed the gavage needle (19-gauge) along the side of the mouth. Following the roof of the mouth, advanced the needle into the esophagus and toward the stomach. After the needle was passed to the correct length, the compound was injected. […] A volume of 3 μL was injected onto the ultra-performance liquid chromatography (UPLC) instrument for quantitative analysis using a temperature-controlled autosampler operating at 10° C. […] Quantification was performed in multiple-reaction monitoring (MRM) mode. […]

% at 30 min. ([1]; 30 min)	% at 60 min. ([1]; 60 min)	Kp ([2]; male, Long-Evans, rat, brain and plasma, read-out: brain/plasma ratio)	SMILES	exposures in brain and plasma, R- versus S-enantiomer ([2]; FIG. 12A)
9%	4%	–	CCc1cc(Cl)c(OC)c(N2CCN(C[C@H](O)CCNC(=O)c3cc4ccccc4[nH]3)CC2)c1 [(R)-29, (R)—N-(4-(4-(3-chloro-5-ethyl-2-methoxyphenyl)piperazin-1-yl)-3-hydroxybutyl)-1H-indole-2-carboxamide]	twice higher exposures in both brain and plasma
–	–	6	CCc1cccc(N2CCN(C[C@@H](O)CCNC(=O)c3cc4ccccc4[nH]3)CC2)c1Cl [(S)-19, (S)—N-(4-(4-(2-chloro-3-ethylphenyl)piperazin-1-yl)-3-hydroxybutyl)-1H-indole-2-carboxamide]	–
